Converted amounts (≈) assume the structure as drawn.
Experiments:
L1210 cells [1] = test: Cytotoxicity, protein synthesis in L1210 cells; type: cell-based; details: Mus musculus; for IC50: read-out: ID50, protein synthesis
Description: (§1) The results are shown below.

L1210 leukemia cells = test: Antitumor activity, increase of life span, L1210 leukemia cells in CDF1 mice; type: in vivo; details: intraperitoneal, 10 days
Procedure: To CDF1 mice were intraperitoneally transplanted 1×10^5 L1210 leukemia cells/mouse as a suspension. After the transplantation, each 0.25 ml of a solution containing the test compound was intraperitoneally injected for 10 days, beginning on the day of transplantation. […] The increase of life span (%) compared with the control group consisting of mice administered with physiological saline solution instead of the test compound was calculated from the following equation: [formula]

Serr. marcessens = test: Antimicrobial activity, MIC by agar dilution method; type: cell-based
Description: (§2) The antimicrobial activity of ditrisarubicin according to the present invention was examined. It is expressed as minimum inhibitory concentration (MIC) determined by the agar dilution method.

S. aureus Smith = test: as above; type: cell-based; details: Staphylococcus aureus
Description: as §2

B. cereus ATCC 10702 = test: as above; type: cell-based; details: Bacillus cereus, ATCC10702; B. cereus ATCC 10702, agar dilution method
Description: as §2

S. aureus MS8710 = test: as above; type: cell-based; details: Staphylococcus aureus
Description: as §2

S. aureus 209 P = test: as above; type: cell-based; details: Staphylococcus aureus
Description: as §2

S. aureus MS9610 = test: as above; type: cell-based; details: Staphylococcus aureus
Description: as §2

Pseu. aeruginosa A3 = test: as above; type: cell-based; details: Pseudomonas aeruginosa
Description: as §2

[2] = tested on: M. lysodeikticus IFO 3333; test: as above; type: cell-based; details: Micrococcus luteus, IFO3333; M. lysodeikticus IFO 3333, agar dilution method
Description: as §2

Sal. typhi T-63 = test: as above; type: cell-based; details: Salmonella enterica; Sal. typhi T-63, agar dilution method
Description: as §2

E. coli NIHJ = test: as above; type: cell-based; details: Escherichia coli
Description: as §2

Prot. vulgaris OX19 = test: as above; type: cell-based; details: Proteus vulgaris
Description: as §2

B. subtilis PCI 219 = test: as above; type: cell-based; details: Bacillus subtilis, PCI219; B. subtilis PCI 219, agar dilution method
Description: as §2

K. pnuemoniae PCI 602 = test: as above; type: cell-based; details: K. pnuemoniae PCI 602, agar dilution method
Description: as §2

Coryn. bovis 1810 = test: as above; type: cell-based; details: Corynebacterium bovis; Coryn. bovis 1810, agar dilution method
Description: as §2

L1210 cells [3] = test: Cytotoxicity, DNA synthesis in L1210 cells; type: cell-based; details: Mus musculus, read-out: ID50, DNA synthesis
Description: as §1

L1210 cells [4] = test: Cytotoxicity, RNA synthesis in L1210 cells; type: cell-based; details: Mus musculus, read-out: ID50, RNA synthesis
Description: as §1

L1210 cells [5] = test: Cytotoxicity, growth of L1210 cells; type: cell-based; details: Mus musculus, read-out: ID50, growth
Description: as §1

Solubility = type: physicochemical

Row | Structure (SMILES) | Increase of life span (L1210 leukemia cells; 0.016 mg/kg/day) | Increase of life span (L1210 leukemia cells; 0.031 mg/kg/day) | Increase of life span (L1210 leukemia cells; 0.063 mg/kg/day) | Increase of life span (L1210 leukemia cells; 0.125 mg/kg/day) | Increase of life span (L1210 leukemia cells; 0.25 mg/kg/day) | MIC (Serr. marcessens) | MIC (S. aureus Smith) | MIC (B. cereus ATCC 10702) | MIC (S. aureus MS8710) | MIC (S. aureus 209 P) | MIC (S. aureus MS9610) | MIC (Pseu. aeruginosa A3) | MIC [2] | MIC (Sal. typhi T-63) | MIC (E. coli NIHJ) | MIC (Prot. vulgaris OX19) | MIC (B. subtilis PCI 219) | MIC (K. pnuemoniae PCI 602) | MIC (Coryn. bovis 1810) | IC50 (L1210 cells [3]) | further results
1 | CCC1(O)CC(OC2CC(N(C)C)C(OC3CC4OC5CC(=O)C(C)OC5OC4C(C)O3)C(C)O2)c2c(O)c3c(c(O)c2C1OC1CC(N(C)C)C(OC2CC(O)C(OC4CCC(=O)C(C)O4)C(C)O2)C(C)O1)C(=O)c1cccc(O)c1C3=O (stereo not drawn) [Ditrisarubicin A] | 136% | 148% | 148% | 119% | 91% | 50 µg/mL (≈ 42.3 µM) | 0.39 µg/mL (≈ 0.33 µM) | 0.39 µg/mL (≈ 0.33 µM) | < 0.2 µg/mL | < 0.2 µg/mL | 0.39 µg/mL (≈ 0.33 µM) | 12.5 µg/mL (≈ 10.6 µM) | < 0.2 µg/mL | 50 µg/mL (≈ 42.3 µM) | 50 µg/mL (≈ 42.3 µM) | 50 µg/mL (≈ 42.3 µM) | < 0.2 µg/mL | 50 µg/mL (≈ 42.3 µM) | 0.78 µg/mL (≈ 0.659 µM) | 0.31 µg/mL (≈ 0.262 µM) | IC50 (L1210 cells [1]): 8.5 µg/mL (≈ 7.18 µM); IC50 (L1210 cells [4]): 0.023 µg/mL (≈ 0.0194 µM); IC50 (L1210 cells [5]): 0.0005 µg/mL (≈ 0.000423 µM); Solubility in methanol, acetone, ethyl acetate, chloroform, acetonitrile and DMSO (Solubility): soluble; Solubility in water, n-hexane and petroleum ether (Solubility): sparingly soluble
2 | CCC1(O)CC(OC2CC(N(C)C)C(OC3CC4OC5CC(=O)C(C)OC5OC4C(C)O3)C(C)O2)c2c(O)c3c(c(O)c2C1OC1CC(N(C)C)C(OC2CC4OC5CC(=O)C(C)OC5OC4C(C)O2)C(C)O1)C(=O)c1cccc(O)c1C3=O (stereo not drawn) [Ditrisarubicin B] | 114% | 136% | 148% | 159% | 108% | 50 µg/mL (≈ 42.3 µM) | 0.78 µg/mL (≈ 0.66 µM) | 0.39 µg/mL (≈ 0.33 µM) | 0.39 µg/mL (≈ 0.33 µM) | < 0.2 µg/mL | 0.39 µg/mL (≈ 0.33 µM) | 25 µg/mL (≈ 21.2 µM) | < 0.2 µg/mL | > 50 µg/mL | > 50 µg/mL | 50 µg/mL (≈ 42.3 µM) | 0.39 µg/mL (≈ 0.33 µM) | 50 µg/mL (≈ 42.3 µM) | < 0.2 µg/mL | 0.29 µg/mL (≈ 0.245 µM) | inhibition at 10 µg/mL (L1210 cells [1]; with 10 γ/ml): 23.3%; IC50 (L1210 cells [4]): 0.029 µg/mL (≈ 0.0245 µM); IC50 (L1210 cells [5]): 0.0011 µg/mL (≈ 0.000931 µM); Solubility in methanol, acetone, ethyl acetate, chloroform, acetonitrile and DMSO (Solubility): soluble; Solubility in water, n-hexane and petroleum ether (Solubility): sparingly soluble
3 | CCC1(O)CC(OC2CC(N(C)C)C(OC3CC4OC5CC(=O)C(C)OC5OC4C(C)O3)C(C)O2)c2c(O)c3c(c(O)c2C1OC1CC(N(C)C)C(OC2CCC(OC4C=CC(=O)C(C)O4)C(C)O2)C(C)O1)C(=O)c1cccc(O)c1C3=O (stereo not drawn) [Ditrisarubicin C] | 142% | 182% | 142% | 148% | 114% | 50 µg/mL (≈ 42.9 µM) | 0.39 µg/mL (≈ 0.335 µM) | 0.39 µg/mL (≈ 0.335 µM) | < 0.2 µg/mL | < 0.2 µg/mL | < 0.2 µg/mL | 25 µg/mL (≈ 21.5 µM) | < 0.2 µg/mL | > 50 µg/mL | > 50 µg/mL | 50 µg/mL (≈ 42.9 µM) | 0.39 µg/mL (≈ 0.335 µM) | > 50 µg/mL | < 0.2 µg/mL | 0.14 µg/mL (≈ 0.12 µM) | IC50 (L1210 cells [1]): 3.2 µg/mL (≈ 2.75 µM); IC50 (L1210 cells [4]): 0.014 µg/mL (≈ 0.012 µM); IC50 (L1210 cells [5]): 0.0007 µg/mL (≈ 0.000601 µM); Solubility in methanol, acetone, ethyl acetate, chloroform, acetonitrile and DMSO (Solubility): soluble; Solubility in water, n-hexane and petroleum ether (Solubility): sparingly soluble

From patent publication US4550159A, “Anthracycline compounds” (Microbial Chemistry Research Foundation, priority 1982, dated 1985)
